According to a melting point compilation (Tetko et al.; mined from patent text by program, amines drawn as free bases though some values may be those of a salt):

| SMILES | melting point |
| --- | --- |
| C[C@H](c1ccccc1)n1c(=O)c2c(N3CCN(C)CC3)cc(Cl)cc2n(Cc2ccccc2)c1=O | 108 to 115 °C |
| Cc1cc(CSCCNC(=C[N+](=O)[O-])NCC(O)c2cccc(Br)c2)sc1CN(C)C (stereo unspecified) | 104 to 106 °C |
| CC12CCC(O)CC1CCC1C2CCC2(CN3CCOCC3)C(O)C(N3CCCC3)CC12 (stereo unspecified) | 218 °C |
| C=C1N(CCC)C(=O)OC12CCN(Cc1ccccc1)CC2 | 70 to 71 °C |
| NCCNC(c1ccccc1)c1ccccc1 | 23 to 24 °C |
| CCCc1nn(-c2ccc(C(F)(F)F)cn2)cc1CCCOc1ccccc1CCC(=O)O | 87 to 88 °C |
| CC(C=O)=Cc1cc([N+](=O)[O-])ccc1Cl | 99 to 102 °C |
| CC1C(=NO)CC2(O)C3Cc4ccc(O)c5c4C2(CCN3CC2CC2)C1O5 (stereo unspecified) | 172 to 173 °C |
| Cc1c(CC(=O)NOCc2ccccc2)c2cc(OCc3nc4ccccc4s3)ccc2n1Cc1ccc(Cl)cc1 | 183 to 186 °C |
| Cn1c(-c2ccccc2)c(C2=CCC(C(=O)O)(C(=O)O)CC2)c2ccccc21 | 210 to 211 °C |
| Cc1ccc(-c2c(C(=O)NCc3cc(C(F)(F)F)cc(C(F)(F)F)c3)oc(=O)c3cnccc23)cc1 | 188 to 189 °C |
| Cc1ccc(COc2ccc(C=C3CCCCC3=O)cc2)cc1 | 148 to 149 °C |
| CCC(Oc1ccc(F)cc1)C(=O)OC1CC(O)C=C2C=CC(C)C(CCC3CC(O)CC(=O)O3)C21 (mixture of isomers) | 149 to 150 °C |
| O=C(O)COc1cc(O)c2c(c1)NC1(CCCCC1)CC2=O | 177 to 178 °C |
| Cc1oc(-c2ccccc2)nc1COc1ccc(COC(=O)Cc2cccc(OCc3ccc(OCc4nc(-c5ccccc5)oc4C)cc3)c2)cc1 | 90 to 91 °C |
| COc1cccc(C23CCC(=O)C(C2)NC3=O)c1 (stereo unspecified) | 138 to 139 °C |
| CN1CCCC1=NC(=O)Nc1cccc(C#N)c1 | 145 to 147 °C |
| OCc1ncccc1Cl | 42 to 44 °C |
| O=P1(c2cccc(F)c2)c2ccccc2CN1c1ccccc1 (stereo unspecified) | 209 to 210 °C |
| CCCCCCCCC=CCCCCCCCCOCC(CN(C)C)OCCCCCCCCC=CCCCCCCCC (stereo unspecified) | 35 to 38 °C |
| CCOC(=O)c1cn(-c2ccccc2)nc1NC=O | 135 to 136 °C |
| O=[N+]([O-])c1cccc2c(Br)nccc12 | 187 to 188 °C |
| CN1CC(C(=O)COC(=O)C(C)(C)C)CC2c3cccc4[nH]cc(c34)CC21 (stereo unspecified) | 155 to 156 °C |
| CC(=O)c1ccc(OCCOc2ccc3ccccc3c2)c(Cl)c1 | 164 to 166 °C |
| CCc1cc(=O)c2c([nH]1)CCOC2 | 238 to 240 °C |
| COC(=O)c1ccc2[nH]c(-c3ccc(OC)c4nc(C)ccc34)nc2c1 | 165 to 167 °C |

| SMILES | melting point |
| --- | --- |
| CC(Oc1ccc(S(C)(=O)=O)cc1)c1ccnc2ncnn12 (stereo unspecified) | 163 to 164 °C |
| O=C(CC(F)=C(F)F)NS(=O)(=O)C(F)(F)F | 115 to 120 °C |
| CCOC(=O)C1=C(C)NC(CS(=O)c2ccccc2)=C(C(=O)OCC)C1c1cccc([N+](=O)[O-])c1 (stereo unspecified) | 160 to 162 °C |
| CCc1cccc(-c2ccc(S(=O)(=O)N3c4ccccc4CC3C(=O)O)cc2)c1 (stereo unspecified) | 70 to 72 °C |
| O=C(Nc1cccc(Cc2ccccc2)c1)N1CCc2c(cnc3[nH]ncc23)C1 | 175 to 178 °C |
| CCCCOC(=O)COc1ccc(C(=O)Nc2ccccc2Sc2ccc(Cl)cc2-c2nnn[nH]2)cc1 | 156 to 157 °C |
| O=C(O)COc1cccc2c1Cc1sc(S(=O)(=O)CCCC(c3ccccc3)c3ccccc3)nc1-2 | 97 to 101 °C |
| O=C(O)CNc1ccc(Cl)c(Cl)c1 | 128 to 130 °C |
| O=c1ccc2c(-c3ccccc3)nccc2[nH]1 | 261 to 263 °C |
| CN(C(=O)OC(C)(C)C)C1C2CCC1CN(CC(O)COc1ccc(C#N)cc1)C2 (stereo unspecified) | 109 to 112 °C |
| Cc1ccc(CCC(=O)NCCCCN2CCN(C(c3ccccc3)c3ccccc3)CC2)cn1 | 126 to 127 °C |
| CCCCc1nc2ccccn2c(=O)c1-c1ccc(N[C@@H]2CCN(C)C2)cc1 | 64 to 66 °C |
| c1ccc(Cc2c[nH]c3ccccc23)cc1 | 108 to 110 °C |
| CS(=O)(=O)c1cccc(NC(=O)c2cnn3c(C(F)(F)F)cc(-c4ccc(Cl)c(Cl)c4)nc23)c1 | 263 °C |
| Oc1ccc(-c2c3ccccc3c(Cl)c3sc4ccccc4c23)cc1 | 193 to 195 °C |
| Cn1ccc2cc(-c3ccc(S(=O)(=O)n4ccc(/C=C/C(=O)NO)c4)cc3)ccc21 | 177 to 179 °C |
| CCCCCCCCCN(C)c1ccc(S(=O)(=O)Nc2ccccc2)cc1 | 113 to 116 °C |
| O=C(O)/C=C/n1cnc2ccc(C3CC3)cc2c1=O | 291 to 293 °C |
| CCCc1cn(C(C)(C)C(=O)N(C)C)nc1-c1ccccc1Cl | 64 to 66 °C |
| CNC(=O)OCC(C)Nc1ncc(Oc2cc(Cl)c(OC)cc2C(C)C)c(N)n1 (stereo unspecified) | 63.5 to 69.4 °C |
| C[C@H](CO)Nc1nc(SCc2cccc(F)c2F)nc2c1=NC(=O)C(=O)N=2 | 243 to 246 °C |
| O=c1[nH]c2ncc(-c3ccc4[nH]ncc4c3)nc2n1CC1CCCCC1 | 311 to 313 °C |
| CCC(Cl)(CC)C(CO)N=O (stereo unspecified) | 130 °C |
| CC(C)C[C@H](NC(=O)OCc1ccccc1)C(=O)N[C@H]1CCOC1=O | 130 to 131 °C |
| CCN1C(=O)C(C)(C)C(=O)N(C)c2cc(CN(CCn3c(=O)ccc4ccccc43)Cc3ccc(OC)nc3C)ccc21 | 143 to 144 °C |

More lines, now with the values ahead:

| melting point | SMILES |
| --- | --- |
| 109 to 115 °C | CCOC(OCC)C(C#N)(C=O)Cc1cc(OC)c(OC)c(OC)c1 (stereo unspecified) |
| 239 to 240 °C | Cc1ccc(NC(=O)c2cccc(N(C)C)c2)cc1NC(=O)c1cccc(NS(C)(=O)=O)c1 |
| 129 to 133 °C | COc1ccc(C(=Nc2c(Cl)cncc2Cl)NCc2ccccc2)cc1OC1CCCC1 |
| 279 °C | COc1cccc(CNC(=O)c2nc3scc(CC(=O)Nc4ccc(C(=O)O)cc4)c3c(=O)[nH]2)c1 |
| 234 to 236 °C | O=c1[nH][nH]c(=O)n1-c1ccc(Cl)cc1 |
| 193 to 195 °C | O=C=Nc1ccc(OC(=O)CCC(=O)Oc2ccc(N=C=O)cc2)cc1 |
| 112 to 113 °C | CC(C)c1nc(C(C)(C)C)cc(-c2ccc(F)cc2)c1CO |
| 129 to 133 °C | CC(C)Cn1cnc2cnc3ccc(OCc4ccccc4)cc3c21 |
| 178 to 179 °C | O=[N+]([O-])c1ccc(N2CCCC2)c(S(=O)(=O)O)c1 |
| 102 to 106 °C | COc1ccc(CC(C(=O)Nc2nc3ccccc3o2)c2ccc(S(C)(=O)=O)cc2)cc1 (stereo unspecified) |
| 75 to 78 °C | CC(C)C(NC(=O)C(NC(=O)C1CCCN1C(=O)OC(C)(C)C)C(Cc1ccccc1)C(=O)O)C(=O)NC(Cc1ccc(O)cc1)C(=O)OCc1ccccc1 (stereo unspecified) |
| 163 to 164 °C | O=C(c1ccc(Cl)cc1)N1CCC(=Cc2ccc(C3=NCCO3)cc2)CC1 |
| 224 to 225 °C | c1ccc(-c2ccc(NCc3nccc(-c4ccc(-c5ccc(N(c6ccccc6)c6ccccc6)cc5)cc4)n3)cc2)cc1 |
| 106 to 108 °C | CC(=O)OCC1OC(n2cc(SC#N)c(=O)[nH]c2=O)CC1(O)C(C)=O (stereo unspecified) |
| 80 °C | Cc1cc(C)c(C(=O)C(F)(F)F)[nH]1 |
| 103 to 109 °C | COc1cc(C(=O)O)ccc1Cc1cn(C)c2ccc(CC(C)C(=O)NCC3CCCC3)cc12 (stereo unspecified) |
| 150 to 152 °C | C=Cn1cc(C(N)=O)c([N+](=O)[O-])n1 |
| 184 to 187 °C | N=C(NCC1(O)COc2ccccc2OC1)Nc1ccccc1 |
| 128 to 130 °C | CN1N=C(c2ccccc2)C(C)(C)NC1=O |
| 274 to 276 °C | CCn1c(=O)c(C#N)c(O)c2ccc(C)nc21 |
| 164 to 166 °C | CNC(=O)Nc1cc(OC)ccc1Br |
| 117 to 119 °C | Cc1ccccc1[C@@H](CCC(=O)O)Oc1cc(OCc2cccnc2)ccc1[N+](=O)[O-] |
| 278 to 281 °C | CCOC(=O)C(=C1SC(=S)N(CC(=O)O)C1=O)c1csc(NC(=O)c2ccccc2)n1 |

| melting point | SMILES |
| --- | --- |
| 273 °C | COc1c2c(c(OC(C)=O)c3c1C(=O)c1c(cc(OC(C)=O)c(C)c1OC(C)=O)C3=O)-c1c(cc3cnn(-c4ccccc4)c(=O)c3c1OC(C)=O)CC2 |
| 128 to 129 °C | CCOC(=O)CCc1cc(C(=O)CCC(=O)O)ccc1OC |
| 93 to 94 °C | CCSc1cc(C)nc(SCC)c1NC(=O)CCCCCCCCSc1nc2c(C)c(Cl)cc(C(C)C)c2o1 |
| 171 °C | O=C(Nc1ccc(-c2ccc(C(=O)N3CCN4CCC3CC4)o2)cc1)Nc1cccc(C(F)(F)F)c1 |
| 198 to 200 °C | COc1ccc(CNC=C2C(=O)Nc3cc(OC)c(OC)cc32)cc1OC |
| 152 to 156 °C | CCOc1ccc(-c2nc(=O)c3ccccc3s2)cn1 |
| 117 to 119 °C | CCOC(=O)Cc1ccc(-c2cn3ccsc3n2)cc1 |
| 160 to 161 °C | COc1cc2c(cc1OC)[C@@H]1CCCC[C@@H]1N=C2c1ccc(N)cc1 (racemic) |
| 286 to 290 °C | Cn1cc2c(O)c(C(=O)c3ccccc3)cnc2n1 |
| 111 to 112 °C | CCC(=O)NCCC1=CCc2cnc3c(c21)CCO3 |
| 81 to 82 °C | OC/C=C/c1ccc(Cc2cccnc2)cc1 |
| 177 to 178 °C | CC(C)(C)OC(=O)Nc1ccc(C#Cc2ccccc2)cc1N |
| 158 °C | CCOC(=O)C(C)=CC=CC(C)=CC=CC=C(C)C=CC=C(C)C1OCC(C)(C)CO1 |
| 77 to 80 °C | COc1ccc(C(=O)N(C)CC(O)COc2cccc3[nH]c4ccccc4c23)cc1OC (stereo unspecified) |
| 125 to 127 °C | O=S(=O)(Cc1noc(-c2ccccc2)n1)c1ccc(CCNCC(O)c2ccc(OC(F)(F)F)cc2)cc1 (stereo unspecified) |
| 152 to 154 °C | O=S(=O)(Nc1nccs1)c1ccc(Nc2nc(OCC3CCCCC3)c3nc[nH]c3n2)cc1 |
| 199 to 200 °C | Cc1noc(NS(=O)(=O)c2ncccc2C(=O)Nc2ccccc2)c1C |
| 128 to 129 °C | CC(C)OC(=O)C(C(N)=O)=C1SCS1 |
| 75 to 76 °C | Cc1cc(Cl)ccc1N=Cc1ccc(Cl)cc1 |
| 154 to 156 °C | COc1ccc2c(c1)C(NC(=O)OCc1ccccc1)C(=O)N2c1ccc(F)cc1 (stereo unspecified) |
| 169 to 171 °C | Cc1noc(NS(=O)(=O)c2cccc3cccnc23)c1Br |
| 112 to 114 °C | COC=C(C(=O)OC)c1ccccc1CON=C(C)C(=NOC)c1ccc(CCc2ccc(Cl)cc2Cl)cc1 |
